Results on four compounds are retold here after US20250268894A1, “MACROCYCLE COMPOUNDS FOR THE TREATMENT OF CANCER” (Hoffmann-La Roche Inc., priority 2022, published 2025).

Bounds are passed on as bounds.

In general, IC50 refers to the concentration that inhibits the measured activity by half. Lower therefore signals greater potency.

The subject of assay [1] is NCI-H358 cells (KRAS G12C). As to the kind of experiment: Cell viability assay (Cell Counting Kit-8), KRAS G12C. It is filed as cell-based. The following applies: Homo sapiens, NCI-H358, 72 hrs. On the procedure:
(§1) The purpose of this cellular assay was to determine the effects of test compounds on the proliferation of human cancer cell lines NCI-H358 (ATCC-CRL5807) cells, AGS (ATCC-CRL-1739) cells, SW620 (ATCC-CCL-227) over a 3-day treatment period by quantifying the amount of NADPH present at endpoint using Cell Counting Kit-8.
(§2) Cells were seeded at 5,000 cells/well (NCI-H358), 2,000 cells/well (AGS)2,000 cells/well (SW620) in 96-well assay plates (Corning-3699) and incubated overnight. On the day of the assay, diluted compounds were then added in a final concentration of 0.5% DMSO. After 72 hrs incubation, a tenth of the volume of cell counting kit 8 (Dnjindo-CK04) was added into each well. Read the signal (OD450 minus OD650) using EnVision after 2 hrs incubation. IC50 was determined by fitting a 4-parameter sigmoidal concentration response model.

The target of a further assay is KRAS G12D-BRAF complex (Homo sapiens (Human), UniProt P01116+P62937, G12D). As to the kind of experiment: KRAS-BRAF with CYPA (500 nM) interaction assay (TR-FRET), G12D. The class given is biochemical. The procedure:
(§3) Kras-BRAF with CYPA (500 nM) Interaction Assay In this example, TR-FRET was also used to measure the compound or compound-CYPA dependent disruption of the KRAS G12C-BRAF complex. This protocol was also used to measure disruption of KRAS G12D or KRAS G12V binding to BRAF by a compound of the invention, respectively. […] Compound was present in plate wells as a 16-point 3-fold dilution series starting at a final concentration of 10 μM and incubated for 3 hours. […] TR-FRET signal was read on a […] microplate reader (Ex320 nm, Em 665/615 nm). Compounds that facilitate disruption of the KRAS-BRAF complex were identified as those eliciting a decrease in the TR-FRET ratio relative to DMSO control wells.

Another assay deals with KRAS G12V-BRAF complex (Homo sapiens (Human), UniProt P01116+P62937, G12V). The experiment in a line: KRAS-BRAF with CYPA (500 nM) interaction assay (TR-FRET), G12V. The class given is biochemical. The procedure: as §3
A general note: In TR-FRET formats the signal depends on donor and acceptor labels being close together.

In the next assay the target is KRAS G12C-BRAF complex (Homo sapiens (Human), UniProt P01116+P62937, G12C). As to the kind of experiment: KRAS-BRAF with CYPA (500 nM) interaction assay (TR-FRET), G12C. It is filed as biochemical. The procedure:
as §3

The test system of assay [2] is phosphorylation of ERK, KRAS G12D in AGS cells. The experiment in a line: pERK inhibition assay, KRAS G12D in AGS cells. It is filed as cell-based, human. The following applies: Homo sapiens, 4 hours. On the procedure:
(§4) This assay is to measure the ability of test compounds in inhibiting the phosphorylation of ERK, the downstream signaling of KRAS G12C in NCI-H358 cells, KRAS G12D in AGS cells, and KRAS G12V in SW620. NCI-H358 (ATCC-CRL5807) cells, AGS (ATCC-CRL-1739) cells, SW620 (ATCC-CCL-227) cells were all grown and maintained using RPMI-1640 medium (Thermo Fisher Scientific) with 10% fetal bovine serum and 1% penicillin/streptomycin. On the day prior to compound addition, cells were plated in tissue culture-treated 96 well plates (Corning-3699) at a density of 30,000 cell/well, 20,000 cell/well, 30,000 cell/well for NCI-H358, AGS and SW620 respectively, and allowed for attachment overnight. Diluted compounds were then added in a final concentration of 0.5% DMSO. After 4 hours of incubation, the medium was removed, 100 μL of 4% formaldehyde was added, and the assay plates were incubated at room temperature for 20 minutes. The plates were then washed once with phosphate buffered saline (PBS), and permeabilized with 100 μL of chilled methanol for 10 minutes. Non-specific antibody binding to the plates was blocked using 50 μL 1X BSA blocking buffer (Thermo-37520, 10-fold dilution by Phosphate-Buffered Saline Tween (PBST) for at least 1 hour at room temperature.
(§5) The amount of phosphor-ERK was determined using an antibody specific for phosphorylated form of ERK. Primary antibody (PERK, CST-4370, Cell Signaling Technology) was diluted 1:300 in blocking buffer, with 50 μL aliquoted to each well, and incubated overnight at 4° C. Cells was washed five times for 5 minutes with PBST. Secondary antibody (HRP-linked anti-rabbit IgG, CST-7074, Cell Signaling Technology) was diluted 1:1000 in blocking buffer, and 50 μL was added to each well and incubated 1-2 hrs at room temperature. Cells was washed […] for 5 minutes with PBST, 100 μL TMB ELISA substrate (abcam-ab171523) were added and gently shake for 20 minutes. 50 μL stop solution (abcam-ab171529) were added, and then read the signal (OD450) by EnVision.
(§6) IC50 was determined by fitting a 4-parameter sigmoidal concentration response model.

A further assay concerns AGS cells (KRAS G12D). The experiment in a line: Cell viability assay (Cell Counting Kit-8), KRAS G12D. It is filed as cell-based. Conditions: Homo sapiens, 72 hrs. On the procedure:
as §1, §2
For orientation: Tetrazolium dyes change colour on reduction, which living cells bring about.

In assay [3] the test system is phosphorylation of ERK, KRAS G12C in NCI-H358 cells. As to the kind of experiment: pERK inhibition assay, KRAS G12C in NCI-H358 cells. The class given is cell-based, human. Conditions: Homo sapiens, NCI-H358, 4 hours. The procedure:
as §4, §5, §6

The test system of assay [4] is phosphorylation of ERK, KRAS G12V in SW620 cells. As to the kind of experiment: pERK inhibition assay, KRAS G12V in SW620. The class given is cell-based, human. Conditions: Homo sapiens, SW-620, SW620, 4 hours. On the procedure: as §4, §5, §6
The subject of a further assay is SW620 cells (KRAS G12V). The experiment in a line: Cell viability assay (Cell Counting Kit-8), KRAS G12V. The class given is cell-based. Conditions: Homo sapiens, SW-620, SW620, 72 hrs. The procedure: as §1, §2

Chain of KRAS G12D-BRAF complex (P01116-2 other isoform, or with tags, fused parts or gaps G12D): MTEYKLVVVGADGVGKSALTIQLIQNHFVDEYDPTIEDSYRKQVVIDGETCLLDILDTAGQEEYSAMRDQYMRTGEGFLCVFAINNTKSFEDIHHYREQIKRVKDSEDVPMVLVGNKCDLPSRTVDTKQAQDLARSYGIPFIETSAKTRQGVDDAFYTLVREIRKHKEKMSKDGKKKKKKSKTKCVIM
Chain of KRAS G12D-BRAF complex (P62937 whole entry): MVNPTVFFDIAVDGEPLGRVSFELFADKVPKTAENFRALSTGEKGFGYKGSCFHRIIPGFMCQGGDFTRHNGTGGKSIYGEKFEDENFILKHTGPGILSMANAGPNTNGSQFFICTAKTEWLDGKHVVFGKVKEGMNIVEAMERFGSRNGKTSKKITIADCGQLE
Chain of KRAS G12V-BRAF complex (P01116-2 other isoform, or with tags, fused parts or gaps G12V): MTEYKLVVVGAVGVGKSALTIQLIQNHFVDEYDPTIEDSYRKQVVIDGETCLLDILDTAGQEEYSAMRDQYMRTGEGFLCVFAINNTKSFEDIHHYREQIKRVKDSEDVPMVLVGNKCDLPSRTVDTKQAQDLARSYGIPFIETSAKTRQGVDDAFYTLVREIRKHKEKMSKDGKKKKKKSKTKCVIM
Chain of KRAS G12V-BRAF complex (P62937 whole entry): as the sequence (P62937 whole entry) above
Chain of KRAS G12C-BRAF complex (P01116-2 other isoform, or with tags, fused parts or gaps G12C): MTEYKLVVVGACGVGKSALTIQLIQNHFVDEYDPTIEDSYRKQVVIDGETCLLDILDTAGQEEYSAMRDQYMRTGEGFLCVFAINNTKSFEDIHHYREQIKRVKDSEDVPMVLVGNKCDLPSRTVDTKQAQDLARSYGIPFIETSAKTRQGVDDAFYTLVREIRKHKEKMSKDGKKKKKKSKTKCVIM
Chain of KRAS G12C-BRAF complex (P62937 whole entry): as the sequence (P62937 whole entry) above

As to `CO[C@@H](C)c1ncc(N2CCN(CC(F)(F)F)CC2)cc1-c1c2c3cc(c(F)cc3n1CC(F)(F)F)-c1csc(n1)C[C@H](NC(=O)[C@H](C(C)C)N(C)C(=O)N1CC(N(C)C)C1)C(=O)N1CCC[C@H](N1)C(=O)OCC(C)(C)C2` (atropisomer, axis not shown; (M)) [Example 12, 3-(dimethylamino)-N-[(1S)-1-[[(7S,13S)-24-fluoro-(20M)-20-[2-[(1S)-1-methoxyethyl]-5-[4-(2,2,2-trifluoroethyl)piperazin-1-yl]-3-pyridyl]-17,17-dimethyl-8,14-dioxo-21-(2,2,2-trifluoroethyl)-15-oxa-4-thia-9,21,27,28-tetrazapentacyclo[17.5.2.1^2,5.1^9,13.0^22,26]octacosa-1 (25),2,5 (28),19,22 (26),23-hexaen-7-yl]carbamoyl]-2-methyl-propyl]-N-methyl-azetidine-1-carboxamide], the half-inhibitory concentration (IC50) in [1] is 9 nM; against KRAS G12D-BRAF complex it was 140 nM; at KRAS G12V-BRAF complex, 85 nM; against KRAS G12C-BRAF complex, 29 nM; in assay [2], 15 nM; in the assay with AGS cells (KRAS G12D), 38 nM. Moreover, the concentration for half-maximal inhibition (IC50) in [3] was 6 nM; in [4], 4 nM; with SW620 cells (KRAS G12V), 7 nM.
As for `CCn1c(-c2cc(N3CCN(CC(F)(F)F)CC3)cnc2[C@H](C)OC)c2c3cc(c(F)cc31)-c1csc(n1)C[C@H](NC(=O)[C@H](C(C)C)N(C)C(=O)N1CCOCC1)C(=O)N1CCC[C@H](N1)C(=O)OCC(C)(C)C2` (atropisomer, axis not shown; (M)) [Example 9, N-[(1S)-1-[[(7S,13S)-21-ethyl-24-fluoro-(20M)-20-[2-[(1S)-1-methoxyethyl]-5-[4-(2,2,2-trifluoroethyl)piperazin-1-yl]-3-pyridyl]-17,17-dimethyl-8,14-dioxo-15-oxa-4-thia-9,21,27,28-tetrazapentacyclo[17.5.2.1^2,5.1^9,13.0^22,26]octacosa-1 (25),2,5 (28),19,22 (26),23-hexaen-7-yl]carbamoyl]-2-methyl-propyl]-N-methyl-morpholine-4-carboxamide], the half-maximal inhibitory concentration (IC50) in [1] came out at 24 nM; on KRAS G12D-BRAF complex it was 225 nM; against KRAS G12V-BRAF complex, 124 nM; at KRAS G12C-BRAF complex, 49 nM; in assay [2], 23 nM; in the assay with AGS cells (KRAS G12D), 91 nM. Besides, the IC50 in [3] was found to be 24 nM; in [4], 9 nM; in the assay with SW620 cells (KRAS G12V), 14 nM.
In the case of `CCn1c(-c2cc(N3CCOCC3)cnc2[C@H](C)OC)c2c3cc(c(F)cc31)-c1csc(n1)C[C@H](NC(=O)[C@H](C(C)C)N(C)C(=O)N1CC(C(F)(F)F)C1)C(=O)N1CCC[C@H](N1)C(=O)OCC(C)(C)C2` (atropisomer, axis not shown; (M)) [Example 14, N-[(1S)-1-[[(7S,13S)-21-ethyl-24-fluoro-(20M)-20-[2-[(1S)-1-methoxyethyl]-5-morpholino-3-pyridyl]-17,17-dimethyl-8,14-dioxo-15-oxa-4-thia-9,21,27,28-tetrazapentacyclo[17.5.2.1^2,5.1^9,13.0^22,26]octacosa-1 (25),2,5 (28),19,22 (26),23-hexaen-7-yl]carbamoyl]-2-methyl-propyl]-N-methyl-3-(trifluoromethyl) azetidine-1-carboxamide], the half-maximal inhibitory concentration (IC50) was 100 nM in assay [1]; more than 10000 nM at KRAS G12D-BRAF complex; more than 10000 nM on KRAS G12V-BRAF complex; more than 10000 nM against KRAS G12C-BRAF complex; 32 nM in [2]; more than 10000 nM in the assay on AGS cells (KRAS G12D). In addition, the IC50 in assay [3] was 28 nM; in assay [4] it was 12 nM; with SW620 cells (KRAS G12V), 73 nM.
`CO[C@@H](C)c1ncc(N2CCOCC2)cc1-c1c2c3cc(c(F)cc3n1CC(F)(F)F)-c1csc(n1)C[C@H](NC(=O)[C@H](C(C)C)N(C)C(=O)N1CCOCC1)C(=O)N1CCC[C@H](N1)C(=O)OCC(C)(C)C2` (atropisomer, axis not shown; (M)) [Example 11, N-[(1S)-1-[[(7S,13S)-24-fluoro-20-(20M)-[2-[(1S)-1-methoxyethyl]-5-morpholino-3-pyridyl]-17,17-dimethyl-8,14-dioxo-21-(2,2,2-trifluoroethyl)-15-oxa-4-thia-9,21,27,28-tetrazapentacyclo[17.5.2.1^2,5.1^9,13.0^22,26]octacosa-1(25),2,5(28),19,22(26),23-hexaen-7-yl]carbamoyl]-2-methyl-propyl]-N-methyl-morpholine-4-carboxamide]: the IC50 in assay [1] was 2 nM; against KRAS G12D-BRAF complex, 112 nM; at KRAS G12V-BRAF complex, 59 nM; against KRAS G12C-BRAF complex it was 24 nM; in assay [2], 1 nM; with AGS cells (KRAS G12D), 6 nM. In addition, the half-inhibitory concentration (IC50) was determined as 3 nM in assay [3], 1 nM in assay [4] and 1 nM in the assay on SW620 cells (KRAS G12V).
